Columns and labels:
[1] = tested on: DNA d(G4C4); test: Displacement of F-neo (42a) from GC DNA, 96-well; type: binding; conditions: one molar equivalent; FIG. 15
Text: The HTS by the displacement of a fluorescene-neomycin (F-neo (42a)) bound from a synthetic DNA sequence eight bases long designed to conform to A-form DNA by the synthetic molecule neomycin-anthraquinone (67) using a 96 well plate format and a fluorescent plate reader is disclosed.
The high throughput screening (HTS) has been designed to determine the binding of drugs to the target sequence d(G4C4). The target is predicted to exist predominately in the A-form conformation of DNA. This HTS involves the displacement of a fluorescene-neomycin (F-neo (42a)) by DNA binding molecules in a 96 well plate format using a fluorescent plate reader. […] The quality of the assay was determined by the calculation of a Z′-factor using equation 1 for the displacement of F-neo (42a) from the DNA by neomycin-anthraquinone 67. The final assay results were obtained using the average (μn) and standard deviation (σn) from 36 wells of 0.1 μM F-neo (42a)/DNA d(G4C4) as the negative control and from the average (μp) and standard deviation (σp) 36 wells of 0.1 μM F-neo (42a)/DNA d(G4C4) mixed with 0.3 μM neomycin-anthraquinone 67 as the positive control.
Upon binding to the DNA the fluorescence of F-neo (42a) is quenched. […] This increase is not observed with the addition of the minor groove binding compound 59, in which the change in the fluorescence observed is approximately the same as that of the DMSO control.

[2] = tested on: DNA d(G4C4); test: Displacement of TO-neo (36a) from GC DNA, 96-well; type: binding; conditions: FIG. 14
Text: The HTS by the displacement of a thiazole-neomycin (TO-neo (36a)) bound from a synthetic DNA sequence eight bases long designed to conform to A-form DNA by the synthetic molecule neomycin-anthraquinone 67 using a 96 well plate format and a fluorescent plate reader was disclosed herein.
The high throughput screening (HTS) has been designed to determine the binding of drugs to the target sequence d(G4C4). The target is predicted to exist predominately in the A-form conformation of DNA. This HTS involves the displacement of a TO-neo (36a) molecule by DNA binding molecules in a 96 well plate format using a fluorescent plate reader. […] The quality of the assay was determined by the calculation of a Z′-factor using equation 1 for the displacement of TO-neo (36a) from the DNA by a neomycin-anthraquinone 67 conjugate. […]
The fluorescence of the probe decrease approximately 60% with the addition of the neomycin-anthraquinone 67, a synthetic molecule predicted to bind in the major groove. However, with the addition of the minor groove binding compound 59, the change in fluorescence is less than 10%. The change in the fluorescence observed upon the addition of the compound 59 is approximately the same as that observed in the DMSO control.

[3] = tested on: bacterial A-site oligos; conditions: cited from earlier work
[4] = tested on: TAR RNA; conditions: read-out: IC50 for inhibition of Tat peptide binding to the TAR RNA; cited from earlier work
[5] = tested on: dimeric form of a parallel quadruplex formed by the Tetrahymena telomere; conditions: cited from earlier work
[6] = tested on: E. coli ribosomal A-site oligonucleotide (SEQ ID No. 1); test: 96-well F-neo displacement HTS on ribosomal A-site; type: binding; conditions: 0.30 mM F-neo, 0.3 mM A-site oligonucleotide, 1.0 mM neomycin
Text: [drawing 24] where FHNeo represents the protonated form of F-neo. F(-)Neo, upon binding to nucleic acids such as DNA or RNA, is destabilized by the nucleic acid backbone negative potential, shifting the equilibrium towards FH, making F-neo a weaker acid, raising the pKa, which is what we observe upon binding to the A-site. For the A-site targeted assay, we calculated the Z' factor (Z=1-3(2.7+2.8)/(414-267)=0.89. […] Provided is a detailed example for the development of a HTS by the displacement of a fluorescene-neomycin (F-neo (42a)) from rRNA A-site oligonucleotide (SEQ ID No. 1) using a 96 well plate format and a fluorescent plate reader. […] This HTS involves the displacement of a fluorescene-neomycin (F-neo (42a)) by potential RNA binding molecules in a 96 well plate format using a fluorescent plate reader. […] F-neo based RNA binding assays have been performed using a fluorescence spectrophotometer with a 96-well plate reader and results recorded in FIG. 4. […] Fo is defined as the baseline fluorescence intensity of the RNA/F-neo complex and F is the intensity with added drug. The difference between the fluorescence intensity baseline of F-neo/A-site complex and complex with added drug (F-Fo) indicates the extent of the competition of drug for the binding site, this allows the relative binding affinities of aminoglycosides to be established. […]

Compound	relative binding affinities with bacterial A-site oligos [3]	IC50 [4]	further results
NCC1O[C@H](OC2C(O)C(OC3C(O)[C@H](N)CC(N)[C@H]3O[C@H]3OC(CN)[C@@H](O)C(O)C3N)O[C@@H]2CSCCNC(=S)NCCNC(=O)c2ccc3c(c2)C(=O)c2ccccc2C3=O)C(N)C(O)[C@@H]1O (stereo partly drawn) [neomycin-anthraquinone 67, Neomycin-Anthraquinone Conjugate]			change in fluorescence of F-neo (42a) bound to d(G4C4)2 on addition of compound [1]: significant increase in the fluorescence; decrease in fluorescence of TO-neo (36a) bound to d(G4C4)2 on addition of compound [2]: approximately 60%
neomycin	neomycin>paromomycin>ribostamycin	0.92 ± 0.09 µM	affinity [5]: nanomolar affinity; effect of added drug on fluorescence of F-neo/A-site oligonucleotide complex [6]: restored the intensity to F-neo only levels
[H]/N=C(/N)N[C@H]1[C@H](O)[C@@H](O)[C@H](O[C@@H]2O[C@@H](C)[C@](O)(C=O)[C@H]2O[C@@H]2O[C@@H](CO)[C@H](O)[C@@H](O)[C@@H]2NC)[C@@H](N/C(N)=N\[H])[C@@H]1O [streptomycin]		9.5 ± 0.8 µM	
CN(C)CCCNC(=O)c1cc(NC(=O)c2cc(NC(=O)c3nc(NC(=O)c4nc(NC(=O)CCCNC(=O)c5cc(NC(=O)c6cc(NC(=O)c7nc(NC(=O)c8nccn8C)cn7C)cn6C)cn5C)cn4C)cn3C)cn2C)cn1C [compound 59, reference compound]			change in fluorescence of F-neo (42a) bound to d(G4C4)2 on addition of compound [1]: not displaced; decrease in fluorescence of TO-neo (36a) bound to d(G4C4)2 on addition of compound [2]: less than 10%
NC[C@H]1O[C@H](O[C@H]2[C@H](O[C@@H]3O[C@H](CO)[C@@H](O)[C@H]3O)[C@@H](O)[C@H](N)C[C@@H]2N)[C@H](N)[C@@H](O)[C@@H]1O [ribostamycin]	neomycin>paromomycin>ribostamycin		
NC[C@@H]1O[C@H](O[C@H]2[C@@H](O)[C@H](O[C@@H]3[C@@H](O)[C@H](N)C[C@H](N)[C@H]3O[C@H]3O[C@H](CO)[C@@H](O)[C@H](O)[C@H]3N)O[C@@H]2CO)[C@H](N)[C@@H](O)[C@@H]1O [paromomycin]	neomycin>paromomycin>ribostamycin		
gentamicin		45 ± 4 µM	
